Inconclusive results and toxic doses are left out. Rule as the data show it: active = T/C of 150% or more; inactive = T/C below 125%.
System: L1210 leukemia ip in BDF1 mice, survival T/C
Experiment: NCI In Vivo Anticancer Drug Screen. Data for tumor model L1210 Leukemia (intraperitoneal) in B6D2F1 (BDF1) mice
Conditions: endpoint: mean survival time, higher = longer survival
Procedure, shortened: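 Antitumor effect is assessed in tumor-bearing animals. Survival in the compound arm is compared with a vehicle-dosed control arm and expressed as their quotient.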

[1] = dose: 50.0 mg/kg/injection, schedule: Q01DX001 (ip), vehicle: saline
[2] = dose: 100.0 mg/kg/injection, schedule: Q01DX001 (ip), vehicle: saline
[3] = dose: 200.0 mg/kg/injection, schedule: Q01DX001 (ip), vehicle: saline
[4] = dose: 100.0 mg/kg/injection, schedule: Q04DX003 (ip), vehicle: Klucel (hydroxypropylcellulose) (HPC)
[5] = dose: 100.0 mg/kg/injection, schedule: Q01DX009 (ip), vehicle: Klucel (hydroxypropylcellulose) (HPC)
[6] = dose: 200.0 mg/kg/injection, schedule: Q01DX009 (ip), vehicle: Klucel (hydroxypropylcellulose) (HPC)
[7] = dose: 100.0 mg/kg/injection, schedule: Q01DX001 (ip), vehicle: carboxymethylcellulose (CMC)
[8] = dose: 200.0 mg/kg/injection, schedule: Q01DX001 (ip), vehicle: carboxymethylcellulose (CMC)
[9] = dose: 400.0 mg/kg/injection, schedule: Q01DX001 (ip), vehicle: carboxymethylcellulose (CMC)
[10] = dose: 100.0 mg/kg/injection, schedule: Q04DX003 (ip), vehicle: saline with Tween-80
[11] = dose: 200.0 mg/kg/injection, schedule: Q04DX003 (ip), vehicle: saline with Tween-80

Measured: T/C

CC(=O)Nc1ccc(S(=O)(=O)Nc2ccc(N(CCCl)CCCl)cc2)cc1
inactive: dose: 50.0 mg/kg/injection, schedule: Q04DX002 (ip), vehicle: saline with Tween-80 107 % of control | dose: 100.0 mg/kg/injection, schedule: Q04DX002 (ip), vehicle: saline with Tween-80 110 % of control | dose: 200.0 mg/kg/injection, schedule: Q04DX002 (ip), vehicle: saline with Tween-80 107 % of control | dose: 400.0 mg/kg/injection, schedule: Q04DX002 (ip), vehicle: saline with Tween-80 110 % of control

Cc1ccc(NC(=O)COc2ccc(Cl)cc2Cl)cc1NC(=O)COc1ccc(Cl)cc1Cl
inactive: dose: 100.0 mg/kg/injection, schedule: Q04DX002 (ip), vehicle: Klucel (hydroxypropylcellulose) (HPC) 89 % of control | dose: 200.0 mg/kg/injection, schedule: Q04DX002 (ip), vehicle: Klucel (hydroxypropylcellulose) (HPC) 92 % of control | dose: 400.0 mg/kg/injection, schedule: Q04DX002 (ip), vehicle: Klucel (hydroxypropylcellulose) (HPC) 100 % of control

O=C(Oc1c(Cl)cc(Cl)cc1C=Nc1cccc(C(F)(F)F)c1)c1ccccc1
inactive: dose: 100.0 mg/kg/injection, schedule: Q01DX009 (ip), vehicle: other 101 % of control | dose: 200.0 mg/kg/injection, schedule: Q01DX009 (ip), vehicle: other 101 % of control | dose: 400.0 mg/kg/injection, schedule: Q01DX009 (ip), vehicle: other 101 % of control

NC(N)=N/N=C\c1ccc2c(c1)OCO2
inactive: dose: 15.0 mg/kg/injection, schedule: Q01DX Z (ip), vehicle: saline 98 % of control | dose: 30.0 mg/kg/injection, schedule: Q01DX Z (ip), vehicle: saline 88 % of control | dose: 30.0 mg/kg/injection, schedule: Q01DX Z (oral), vehicle: saline 92 % of control | dose: 60.0 mg/kg/injection, schedule: Q01DX Z (ip), vehicle: saline 92 % of control | dose: 60.0 mg/kg/injection, schedule: Q01DX Z (oral), vehicle: saline 94 % of control | dose: 120.0 mg/kg/injection, schedule: Q01DX Z (oral), vehicle: saline 97 % of control

CCc1nc(N)nc(N)c1-c1ccc(N(CCCl)CCCl)cc1
inactive: dose: 13.0 mg/kg/injection, schedule: Q01DX Z (ip), vehicle: methylcellulose (MC) 108 % of control | dose: 20.0 mg/kg/injection, schedule: Q01DX Z (ip), vehicle: methylcellulose (MC) 103 % of control | dose: 30.0 mg/kg/injection, schedule: Q01DX Z (ip), vehicle: methylcellulose (MC) 108 % of control | dose: 45.0 mg/kg/injection, schedule: Q01DX Z (ip), vehicle: methylcellulose (MC) 113 % of control

Cc1cc2nncn2c2ccccc12
inactive: [1] 103 % of control | [2] 101 % of control | [3] 101 % of control

O=C(CCCC(=O)N/N=C/c1c(O)ccc2ccccc12)N/N=C/c1c(O)ccc2ccccc12
inactive: [1] 96 % of control | [2] 96 % of control | [3] 96 % of control | dose: 400.0 mg/kg/injection, schedule: Q01DX001 (ip), vehicle: saline 93 % of control

Cc1ccc(C[As](C)(=O)O)cc1
inactive: dose: 25.0 mg/kg/injection, schedule: Q04DX003 (ip), vehicle: Klucel (hydroxypropylcellulose) (HPC) 100 % of control | dose: 50.0 mg/kg/injection, schedule: Q04DX003 (ip), vehicle: Klucel (hydroxypropylcellulose) (HPC) 98 % of control | [4] 97 % of control

COc1ccc2c(c1)CC(OC)c1cc3c(nc1-2)-c1ccccc1CC3 (centres undefined)
inactive: [5] 96 % of control | [4] 102 % of control | [6] 103 % of control | dose: 200.0 mg/kg/injection, schedule: Q04DX003 (ip), vehicle: Klucel (hydroxypropylcellulose) (HPC) 100 % of control | dose: 400.0 mg/kg/injection, schedule: Q01DX009 (ip), vehicle: Klucel (hydroxypropylcellulose) (HPC) 100 % of control | dose: 400.0 mg/kg/injection, schedule: Q04DX003 (ip), vehicle: Klucel (hydroxypropylcellulose) (HPC) 98 % of control

O=C(Nc1ccccc1)c1ccc(C(=O)Nc2ccccc2)cc1
inactive: [7] 86 % of control | dose: 100.0 mg/kg/injection, schedule: Q01DX001 (oral), vehicle: carboxymethylcellulose (CMC) 108 % of control | dose: 100.0 mg/kg/injection, schedule: Q01DX009 (ip), vehicle: carboxymethylcellulose (CMC) 101 % of control | dose: 100.0 mg/kg/injection, schedule: Q01DX009 (oral), vehicle: carboxymethylcellulose (CMC) 103 % of control | [8] 87 % of control | dose: 200.0 mg/kg/injection, schedule: Q01DX001 (oral), vehicle: carboxymethylcellulose (CMC) 108 % of control | dose: 200.0 mg/kg/injection, schedule: Q01DX009 (ip), vehicle: carboxymethylcellulose (CMC) 100 % of control | dose: 200.0 mg/kg/injection, schedule: Q01DX009 (oral), vehicle: carboxymethylcellulose (CMC) 105 % of control | [9] 87 % of control | dose: 400.0 mg/kg/injection, schedule: Q01DX001 (oral), vehicle: carboxymethylcellulose (CMC) 104 % of control | dose: 400.0 mg/kg/injection, schedule: Q01DX009 (ip), vehicle: carboxymethylcellulose (CMC) 95 % of control | dose: 400.0 mg/kg/injection, schedule: Q01DX009 (oral), vehicle: carboxymethylcellulose (CMC) 111 % of control | dose: 800.0 mg/kg/injection, schedule: Q01DX001 (ip), vehicle: carboxymethylcellulose (CMC) 92 % of control | dose: 800.0 mg/kg/injection, schedule: Q01DX001 (oral), vehicle: carboxymethylcellulose (CMC) 106 % of control | dose: 800.0 mg/kg/injection, schedule: Q01DX009 (ip), vehicle: carboxymethylcellulose (CMC) 97 % of control

N=C(N)c1ccc(-c2cc3cc(C(=N)N)ccc3s2)cc1
inactive: dose: 100.0 mg/kg/injection, schedule: Q04DX003 (ip), vehicle: saline 105 % of control

O=C(NC(CSC1CCCCO1)C(=O)O)OCc1ccccc1 (centres undefined) (tested in a mixture with another compound)
inactive: [1] 106 % of control | [2] 101 % of control | [3] 97 % of control

CCCCc1c(Cl)nc(Cl)nc1Cl
inactive: dose: 25.0 mg/kg/injection, schedule: Q01DX009 (ip), vehicle: saline with Tween-80 105 % of control | dose: 50.0 mg/kg/injection, schedule: Q01DX009 (ip), vehicle: saline with Tween-80 88 % of control

CCOC(=O)NS(=O)(=O)Nc1ccccc1
inactive: [7] 100 % of control | [8] 109 % of control | [9] 95 % of control

O=C(O)CP(=O)(O)O
inactive: dose: 75.0 mg/kg/injection, schedule: Q04DX003 (ip), vehicle: saline 102 % of control | dose: 150.0 mg/kg/injection, schedule: Q04DX003 (ip), vehicle: saline 102 % of control | dose: 300.0 mg/kg/injection, schedule: Q04DX003 (ip), vehicle: saline 93 % of control

CCCCCCCCCCCCCCCCS(=O)(=O)c1ccc(S(=O)(=O)F)cc1NC(=O)C(F)(F)F
inactive: dose: 100.0 mg/kg/injection, schedule: Q01DX009 (ip), vehicle: saline with Tween-80 87 % of control | [10] 92 % of control | dose: 200.0 mg/kg/injection, schedule: Q01DX009 (ip), vehicle: saline with Tween-80 97 % of control | [11] 93 % of control | dose: 400.0 mg/kg/injection, schedule: Q01DX009 (ip), vehicle: saline with Tween-80 105 % of control

O=C1CC2=CC3C=CC(N1)C2c1ccccc13 (centres undefined)
inactive: [10] 101 % of control | [11] 93 % of control | dose: 400.0 mg/kg/injection, schedule: Q04DX003 (ip), vehicle: saline with Tween-80 93 % of control

CCCCn1c(C)cc2c(c1=O)COC(=O)C2(O)CC (centres undefined)
inactive: dose: 2.5 mg/kg/injection, schedule: Q04DX003 (ip), vehicle: saline 101 % of control | dose: 5.0 mg/kg/injection, schedule: Q04DX003 (ip), vehicle: saline 98 % of control | dose: 10.0 mg/kg/injection, schedule: Q04DX003 (ip), vehicle: saline 100 % of control | dose: 20.0 mg/kg/injection, schedule: Q04DX003 (ip), vehicle: saline 96 % of control | dose: 40.0 mg/kg/injection, schedule: Q04DX003 (ip), vehicle: saline 94 % of control

COc1ccc2c(ccc3nc(CCC(=O)O)n(C)c(=O)c32)c1
inactive: dose: 50.0 mg/kg/injection, schedule: Q01DX009 (ip), vehicle: Klucel (hydroxypropylcellulose) (HPC) 96 % of control | [5] 96 % of control | [6] 108 % of control
